Data taken from patent US8629330B2, “Methods and compositions for the inhibition of meristematic growth on cucurbit rootstock” (Syngenta Participations AG, priority 2012, dated 2014).

Experiments:
[1] = tested on: cucurbit rootstock seedling grafted to watermelon or melon scion
Experimental: Grafting can be performed at about 1-21 days after a rootstock shoot apical meristem is treated with a fatty alcohol solution. Possible grafting methods include the following: 1) hole-insertion, in which the rootstock meristem is removed, a hole is punched into the old meristematic area with a bamboo needle, and the scion (cut at the end to both sharpen and expose vascular cambium tissue) is inserted into the prepared rootstock; and 2) one cotyledon, where the rootstock's meristem area and one cotyledon are removed, and the cut scion hypocotyl is adjoined to the resulting wound, stabilized with a clip, and allowed to heal. Once grafted, the plants are placed for approximately seven days in a healing chamber under high humidity for about the first 1-3 days, and then gradually decreasing humidity for the remaining days. After about seven days of healing, the grafted plants can be removed from the chamber and planted.
In this case, the cucurbit rootstock seedling as described in Example 1 was grafted to a cucurbit scion, watermelon (Citrullus lanatus subsp. vulgaris cv. ‘Tri-X-313’) or melon (Cucumis melo cv. ‘Athena’) at about 24 hours after the rootstock shoot apical meristem was first contacted with the fatty alcohol composition. Seven days were allowed for the graft to heal. […]

[2] = tested on: shoot apical meristem of cucurbit rootstock plant; experiment: Inhibition of the shoot apical meristem of cucurbit rootstock; assay type: in vivo; conditions: fatty alcohols about 2.3% (v/v); Oryzalin about 10 mM; sulfuric acid about 18N to about 9N; applied to shoot apical meristem
Text: Rootstock plants, bottle gourd (Lagenaria siceraria var. ‘Emphasis’) or interspecific hybrid squash (C. maxima×C. moschata var. ‘Carnivor’), were sown in Fafard 3-b fertilizer-free mix and allowed to germinate. At the point when the cotyledons unfolded, (approx. 5-10 days after seeding) a droplet of a composition comprising fatty alcohols was applied to the shoot apical meristem of the seedling, between the cotyledons, so that the meristem was covered with solution. […] The droplet volume was 20 to 500 μL and was applied with a pipette (20-200 μL or 1000 μL volume capability, using plastic tips). Seedlings were watered prior to treatment, to avoid needing to water post-treatment, which can dilute or wash away the fatty alcohol solution and prevent burnout of the shoot apical meristem. The treated rootstock seedlings can then be grafted to the appropriate scion at about 1 to 21 days post-treatment. In this case, the rootstock seedling was grafted to a cucurbit scion at about 24 hours after the rootstock shoot apical meristem was first contacted with the fatty alcohol composition.
Maleic hydrazide (21.7%; Royal MH-30®; Chemtura Corp., Middlebury, Conn.) at a concentration of about 90 mg/ml was applied to the shoot apical meristem of rootstock plant. The treated rootstock plants were incubated for about 24 hours prior to grafting to a scion.

SMILES: O=S(=O)(O)O [sulfuric acid, Sulfuric acid]
- successful grafts out of 2016 attempted grafts ([1]; grafted about 24 hours after treatment, fatty alcohols about 2.3% (v/v), maleic hydrazide about 90 mg/ml, Oryzalin about 10 mM, sulfuric acid about 18N to about 9N): none were successful
- effect on grafting tissues ([1]; sulfuric acid about 18N to about 9N applied to shoot apical meristem): the grafting tissues were also destroyed
- effect on rootstock shoot apical meristem [2]: death of the shoot apical meristem
